Test results published in US7056940B2, “Insecticidal 3-(2,6-disubstituted phenyl)-5-[5-arylthien-2-yl]-1,2,4-triazoles” (Dow AgroSciences LLC, priority 2001, dated 2006).

Tests used:
Format in all cases: in vivo
[1] = tested on: Two-spotted Spider Mite (Tetranychus urticae); experiment: Insecticidal test for two-spotted spider mite, ovicide method; set-up: key: A: 90–100; B: 80–89; C: 70–79; D: 60–69; E: 50–59; F: less than 50; G: Inactive; conditions: cotton leaf discs, 6 days
Method: Insecticidal Test for Two-spotted Spider Mite (Tetranychus urticae)
Ten adult female two-spotted spider mites were placed on eight 2.2 cm leaf discs of cotton leaf, allowed to oviposit over 24 hours, and thereafter removed. […] Discs were placed on an agar substrate and held at 24° C. and 90% RH for 6 days.

[2] = tested on: Cotton Aphid (Aphis gossypii); experiment: Insecticidal test for cotton aphid, spray on infested squash cotyledons; conditions: 50 ppm spray, 3 days
Method: Insecticidal Test for Cotton Aphid (Aphis gossypii)
To prepare spray solutions, 1 mg of each test compound was dissolved into 1 mL of a 90:10 acetone:ethanol solvent. This 1 mL of chemical solution was added to 19 mL of water containing 0.05% Tween 20 surfactant to produce a 50 ppm spray solution.
Squash cotyledons were infested with cotton aphid (all life stages) 16–20 hours prior to application of spray solution. The solution was sprayed on both sides of each infested squash cotyledon (0.5 mL×2 each side) with a sweeping action until runoff. The plants were allowed to air dry and held for 3 days in a controlled room at 26° C. and 40% RH after which time the test was graded. Grading was by actual count using a dissecting microscope and comparison of test counts to the untreated check. Results are given in Tables 1–4 as percent control based on population reduction versus the untreated.

[3] = tested on: Tobacco Budworm (Heliothis virescens); experiment: Insecticidal test for tobacco budworm, treated cotton cotyledon leaf disc; set-up: key: A: 90–100; B: 80–89; C: 70–79; D: 60–69; E: 50–59; F: less than 50; G: Inactive; conditions: cotton cotyledon leaf-dip, 2nd instar larvae, 5 days
Excerpt: (§1) The compounds are useful for reducing populations of insects and mites and are useful in a method of inhibiting an insect or mite population which comprises applying to a locus of the insect or mite an effective insect- or mite-inactivating amount of a compound of formula (1). The “locus” of insects or mites is a term used herein to refer to the environment in which the insects or mites live or where their eggs are present, including the air surrounding them, the food they eat, or objects which they contact. For example, insects or mites which eat or contact edible or ornamental plants can be controlled by applying the active compound to plant parts such as the seed, seedling, or cutting which is planted, the leaves, stems, fruits, grain, or roots, or to the soil in which the roots are growing. It is contemplated that the compounds might also be useful to protect textiles, paper, stored grain, seeds, domesticated animals, buildings or human beings by applying an active compound to or near such objects. The term “inhibiting an insect or mite” refers to a decrease in the numbers of living insects or mites, or a decrease in the number of viable insect or mite eggs. The extent of reduction accomplished by a compound depends, of course, upon the application rate of the compound, the particular compound used, and the target insect or mite species. At least an inactivating amount should be used. The terms “insect-inactivating amount” and “mite-inactivating amount” are used to describe the amount, which is sufficient to cause a measurable reduction in the treated insect or mite population. Generally an amount in the range from about 1 to about 1000 ppm by weight active compound is used. For example, insects and mites which can be inhibited include, but are not limited to: • Lepidoptera—Heliothis spp., Helicoverpa spp., Spodoptera spp., Mythimna unipuncta, Agrotis ipsilon, Earias spp., Euxoa auxiliaris, Trichoplusia ni, Anticarsia gemmatalis, Rachiplusia nu, Plutella xylostella, Chilo spp., Scirpophaga incertulas, Sesamia inferens, Cnaphalocrocis medinalis, Ostrinia nubilalis, Cydia pomonella, Carposina niponensis, Adoxophyes orana, Archips argyrospilus, Pandemis heparana, Epinotia aporema, Eupoecilia ambiguella, Lobesia botrana, Polychrosis viteana, Pectinophora gossypiella, Pieris rapae, Phyllonorycter spp., Leucoptera malifoliella, Phyllocnisitis citrella • Coleoptera—Diabrotica spp., Leptinotarsa decemlineata, Oulema oryzae, Anthonomus grandis, Lissorhoptrus oryzophilus, Agriotes spp., Melanotus communis, Popillia japonica, Cyclocephala spp., Tribolium spp. • Homoptera—Aphis spp., Myzus persicae, Rhopalosiphum spp., Dysaphis plantaginea, Toxoptera spp., Macrosiphum euphorbiae, Aulacorthum solani, Sitobion avenae, Metopolophium dirhodum, Schizaphis graminum, Brachycolus noxius, Nephotettix spp., Nilaparvata lugens, Sogatella furcifera, Laodelphax striatellus, Bemisia tabaci, Trialeurodes vaporariorum, Aleurodes proletella, Aleurothrixus floccosus, Quadraspidiotus perniciosus, Unaspis yanonensis, Ceroplastes rubens, Aonidiella aurantii • Hemiptera—Lygus spp., Eurygaster maura, Nezara viridula, Piezodorus guildingi, Leptocorisa varicornis • Thysanoptera—Frankliniella occidentalis, Thrips spp., Scirtothrips dorsalis • Isoptera—Reticulitermes flavipes, Coptotermes formosanus • Orthoptera—Blattella germanica, Blatta orientalis, Gryllotalpa spp. • Diptera—Liriomyza spp., Musca domestica, Aedes spp., Culex spp., Anopheles spp. • Hymenoptera—Iridomyrmex humilis, Solenopsis spp., Monomorium pharaonis, Atta spp., Pogonomyrmex spp., Camponotus spp. • Siphonaptera—Ctenophalides spp., Pulex irritans • Acarina—Tetranychus spp., Panonychus spp., Eotetranychus carpini, Phyllocoptruta oleivora, Aculus pelekassi, Brevipalpus phoenicis, Boophilus spp., Dermacentor variabilis, Rhipicephalus sanguineus, Amblyomma americanum, Ixodes spp., Notoedres cati, Sarcoptes scabiei, Dermatophagoides spp. […]

[4] = tested on: Beet Armyworm (Spodoptera exigua); experiment: Insecticidal test for beet armyworm, treated lepidopteran diet; set-up: key: A: 90–100; B: 80–89; C: 70–79; D: 60–69; E: 50–59; F: less than 50; G: Inactive; conditions: on diet surface, second-instar larvae, 5 days
Excerpt: as §1

[5] = tested on: Sweetpotato Whitefly (Bemisia tabacia); experiment: Insecticidal test for sweetpotato whitefly, spray on cotton plants; set-up: key: A: 90–100; B: 80–89; C: 70–79; D: 60–69; E: 50–59; F: less than 50; G: Inactive; conditions: 200 ppm spray, 13 days, large nymphs
Method: Insecticidal Test for Sweetpotato Whitefly (Bemisia tabacia)
Four mg of each test compound was dissolved by adding 4 mL of a 90:10 acetone:ethanol solvent mixture to the vial containing the sample compound. This solution was added to 16 mL of water containing 0.05% Tween 20 surfactant to produce 20 mL of an 200 ppm spray solution.
Five-week-old cotton plants reared in a greenhouse were stripped of all foliage except for the two uppermost true leaves that were greater than 5 cm in diameter. These plants were then placed into a laboratory colony of whiteflies for two days for oviposition by the colony females. All whiteflies were then removed from the test plants with pressurized air. The spray solution was then applied to the test plants with a hand-held syringe fitted with hollow cone nozzle. One mL spray solution was applied to each leaf top and bottom for a total of 4 mL per plant. Four replications of each test compound utilized a total of 16 mL spray solution. Plants were air dried and then placed in a holding chamber (28° C. and 60% RH) for 13 days. Compound efficacy was evaluated by counting, under an illuminated magnifying glass, the number of large nymphs (3rd–4th instar) per leaf.
Percent control based on reduction of large nymphs of a test compound compared to solution-only (no test compound) sprayed plants is reported in Tables 1–4.

[6] = tested on: Cabbage Looper (Trichoplusia ni); experiment: Insecticidal test for cabbage looper, treated cabbage leaf disc; set-up: key: A: 90–100; B: 80–89; C: 70–79; D: 60–69; E: 50–59; F: less than 50; G: Inactive; conditions: cabbage leaf-dip, 2nd instar larvae, 5 days
Excerpt: as §1

SMILES | SM: activity against two-spotted spider mite (% control rating) [1] | CA: activity at 50 ppm against cotton aphid (% control rating) [2] | TBW: activity at 400 ppm against tobacco budworm (% control rating) [3] | BAW: activity at 400 ppm against beet armyworm (% control rating) [4] | WF: activity at 200 ppm against whitefly (% control rating) [5] | CL: activity at 400 ppm against cabbage looper (% control rating) [6]
CSc1ccc(-c2scc(-c3nc(-c4c(F)cccc4Cl)nn3C)c2C)cc1 | E (50–59) | B (80–89) | G | D (60–69) | G | G
Cc1sc(-c2cccc(OC(F)(F)F)c2)cc1-c1nc(-c2c(F)cccc2Cl)nn1C | A (90–100) | A (90–100) | G | G | F (less than 50) | A (90–100)
Cc1sc(-c2ccc(Cl)cc2F)cc1-c1nc(-c2c(F)cccc2Cl)nn1C | A (90–100) | B (80–89) | G | A (90–100) | F (less than 50) | A (90–100)
Cc1c(-c2nc(-c3c(F)cccc3Cl)nn2C)csc1-c1ccc(C(F)(F)F)cc1F | F (less than 50) | A (90–100) | B (80–89) | A (90–100) | A (90–100) | A (90–100)
Cc1sc(-c2ccc(C(F)(F)F)cc2F)cc1-c1nc(-c2c(F)cccc2Cl)nn1C | B (80–89) | F (less than 50) | G | A (90–100) | G | A (90–100)
Cn1nc(-c2c(F)cccc2Cl)nc1-c1csc(-c2ccc(OC(F)(F)F)cc2F)c1 | F (less than 50) | C (70–79) | G | G | G | F (less than 50)
Cc1c(-c2nc(-c3c(F)cccc3Cl)nn2C)csc1-c1cc(C(F)(F)F)ccc1F | F (less than 50) | B (80–89) | G | G | F (less than 50) | A (90–100)
Cc1sc(-c2cc(C(F)(F)F)ccc2F)cc1-c1nc(-c2c(F)cccc2Cl)nn1C | G | D (60–69) | F (less than 50) | G | G | G
Cc1c(-c2nc(-c3c(F)cccc3Cl)nn2C)csc1-c1ccc(OC(F)(F)C(F)Br)cc1 (stereo not drawn) | A (90–100) | A (90–100) | A (90–100) | A (90–100) | A (90–100) | A (90–100)
Cc1c(-c2nc(-c3c(F)cccc3F)nn2C)csc1-c1ccc(C(F)(F)F)cc1Cl | G | E (50–59) | G | G | G | A (90–100)
Cc1c(-c2nc(-c3c(F)cccc3Cl)nn2C)csc1-c1ccc(OC(F)(F)F)cc1F | F (less than 50) | B (80–89) | A (90–100) | A (90–100) | A (90–100) | A (90–100)
